Source: publication PMC11583597, “Brain uptake pharmacokinetics of albiglutide, dulaglutide, tirzepatide, and DA5-CH in the search for new treatments of Alzheimer’s and Parkinson’s diseases” (Tissue Barriers, 2023)

What was measured:
[1] = Long-term (6 h) measurement of brain uptake; assay type: in vivo, male CD-1 mice; conditions: mouse, in vivo, iv
Description: Substances that are enzymatically stable in blood and have slow clearance from the circulation can slowly enter the brain using the extracellular pathways.[63],[64] […] Albumin enters the brain by extracellular pathways,[70] and so we used albumin in two ways: we used ^99mTc-Alb circulating for 10 min to measure vascular space and ^99mTc-Alb circulating for 6 h to measure brain uptake by extracellular pathways. This is similar to the time-differential methodology developed by Poduslo and Curran to measure a substance’s vascular space and its uptake rate.[71] Following anesthetization, the jugular vein and right carotid artery were exposed. Mice were given an iv injection of 0.1% BSA-LR containing 1 × 10^6 cpm of ^125I-IRA or 5 × 10^5 cpm of ^99mTc-Alb, which circulated for 6 h. Mice receiving only the ^125I-IRA were given an injection of 5 × 10^5 cpm of ^99mTc-Alb 10 min prior to the end of the 6 h circulation time to act as a vascular marker. A separate set of mice received an iv injection of both 1 × 10^6 cpm of ^125I-IRA and 5 × 10^5 cpm of ^99mTc-Alb that circulated for 10 min. Following the 10 min or 6 h circulation time points, blood and brain were collected as described above. Thus, we had B/S ratios for ^99mTc-Alb measuring vascular space (10 min circulation time) and B/S ratios for ^99mTc-Alb measuring vascular space plus uptake by the extracellular pathways (6 h circulation time) which could be compared to the B/S ratios for the ^125I-IRAs after 10 min and 6 h of circulation.
Immediately after counting the radioactivity, the blood and brains from the 10 min and 6 h time points were processed as described in Section 2.5 for in vivo stability. For further comparison, data from the 1 h time point were taken from the original pharmacokinetic uptake study. The ^125I-IRA brain % acid precipitation (%AP) was divided by the ^125I-IRA serum %AP at each time point to calculate the %AP B/S ratio. This value was multiplied by the B/S ratio for each ^125I-IRA to correct for degradation over the 10 min, 1 h, or 6 h time periods. […]

[2] = In vivo stability of 125I/14C-IRAs in brain (acid precipitation); set-up: species or system male CD-1 mice; conditions: mouse, iv
Description: We measured the stability of the radiolabeled IRAs in brain and blood. Following anesthetization, arterial blood and whole brain were taken at two time points (10 or 60 min) after iv injection of 3 × 10^5 cpm-1×10^6 cpm of ^125I/^14C-IRA in 0.2 ml of BSA/LR. The blood samples were allowed to clot, centrifuged at 3200 ×g for 10 min, and 50 μl of the separated serum was added to 250 μl of BSA-LR. Samples were combined with equal volume 30% TCA (300 μl), mixed, and then centrifuged for 10 min at 5400 ×g. Brains were homogenized in 800 μl of BSA-LR with a bead beater for 30 sec at 4800 rpm twice. Following centrifugation at 5400 ×g for 15 min, a portion of the resulting supernatant was added to an equal volume of 30% TCA, mixed, and then centrifuged at 5400 ×g for 10 min. The radioactivity in the resulting supernatant and pellet (Sup and Pel fractions) for serum and brain was calculated separately, and the percent of radioactivity in the precipitate was calculated using the following equation:(1) %AcidPrecip=100×Pel/Sup+Pel
To correct for degradation that might have occurred during the processing, ^125I/^14C-IRA was added to non-radioactive arterial whole blood or to whole brain and processed as above. The biological samples were corrected for degradation during processing by dividing their values by those for processing control (Pcon) values and multiplying by 100. This can sometimes result in a value greater than 100%.
Immediately after counting the radioactivity, the blood and brains from the 10 min and 6 h time points were processed as described in Section 2.5 for in vivo stability. For further comparison, data from the 1 h time point were taken from the original pharmacokinetic uptake study. The ^125I-IRA brain % acid precipitation (%AP) was divided by the ^125I-IRA serum %AP at each time point to calculate the %AP B/S ratio. This value was multiplied by the B/S ratio for each ^125I-IRA to correct for degradation over the 10 min, 1 h, or 6 h time periods. Corrected AP B/S ratios were then corrected for vascular space by subtracting the ^99mTc-Alb B/S ratio within each mouse for the 10 min and 6 h time points (AP corrected delta B/S ratio). For the 1 h time point, the average ^99mTc-Alb B/S ratio (10.03 μl/g) at 10 min across all ^125I-IRAs was used for correction. The AP corrected delta B/S ratio for each ^125I-IRA was then multiplied by the %Inj/ml within each mouse to calculate the AP corrected delta %Inj/g.

SMILES: CC[C@H](C)[C@H](NC(=O)[C@H](CC(C)C)NC(=O)[C@H](Cc1c[nH]c2ccccc12)NC(=O)[C@H](CCC(N)=O)NC(=O)[C@@H](NC(=O)[C@H](Cc1ccccc1)NC(=O)[C@H](C)NC(=O)[C@H](CCCCNC(=O)COCCOCCNC(=O)COCCOCCNC(=O)CC[C@H](NC(=O)CCCCCCCCCCCCCCCCCCC(=O)O)C(=O)O)NC(=O)[C@H](CCC(N)=O)NC(=O)[C@H](C)NC(=O)[C@@H](NC(=O)[C@H](CCCCN)NC(=O)[C@H](CC(=O)O)NC(=O)[C@H](CC(C)C)NC(=O)C(C)(C)NC(=O)[C@@H](NC(=O)[C@H](CO)NC(=O)[C@H](Cc1ccc(O)cc1)NC(=O)[C@H](CC(=O)O)NC(=O)[C@H](CO)NC(=O)[C@@H](NC(=O)[C@H](Cc1ccccc1)NC(=O)[C@@H](NC(=O)CNC(=O)[C@H](CCC(=O)O)NC(=O)C(C)(C)NC(=O)[C@@H](N)Cc1ccc(O)cc1)[C@@H](C)O)[C@@H](C)O)[C@@H](C)CC)[C@@H](C)CC)C(C)C)C(=O)N[C@@H](C)C(=O)NCC(=O)NCC(=O)N1CCC[C@H]1C(=O)N[C@@H](CO)C(=O)N[C@@H](CO)C(=O)NCC(=O)N[C@@H](C)C(=O)N1CCC[C@H]1C(=O)N1CCC[C@H]1C(=O)N1CCC[C@H]1C(=O)N[C@@H](CO)C(N)=O [Tirzepatide]
- Amount present in brain at 6 h (AP corrected delta %Inj/g) [1]: 0.005 %Inj/g
- Percentage of labeled IRA intact, Whole Brain, 10 min [2]: 100.7 ± 0.0%
- Percentage of labeled IRA intact, Whole Brain, 60 min [2]: 99.73 ± 0.6%
